Experimental data reported in patent US7453011B2, “Cycloalkyl substituted polyamines for cancer therapy and methods of synthesis therefor” (Progen Pharmaceuticals, Inc., priority 2001, dated 2008).
Counter-ions that a name gives are not always drawn. Like-named read-outs stand apart in the source and are kept apart here.

Experiments:
[1] = tested on: PC-3 human prostate cancer cell line; assay: MTT assay, PC-3 cells; assay type: cell-based
Experimental: (§1) The polyamine analogs inhibited prostate cancer cell growth in vitro., as indicated in Table 1 and FIG. 1, FIG. 2, FIG. 3, FIG. 4, and FIG. 5. Tissue cultures and the MTT assay were performed as follows. Additional protocols for in vitro assays are disclosed in International Patent Applications WO 00/66175, WO 00/66528, WO 00/66587, WO 98/17624, Valasinas et al., J. Med. Chem. 44:390-403 (2001), and U.S. Provisional Patent Application Ser. No. 60/329,982 filed Oct. 16, 2001.
(§2) Tissue Culture. Cells were seeded into 75 cm^2 culture flasks with 15 ml of Eagle's minimal essential medium supplemented with 10% fetal calf serum and nonessential amino acids. The flasks were incubated in a humidified 95% air/5% CO2 atmosphere. The cells were grown for at least 24 h to ensure that they are in the log phase of growth and then they were treated with the polyamine analogs. Cells were harvested by treatment for 5 min with STV (saline A, 0.05% trypsin, 0.02% EDTA) at 37° C. The flasks were rapped on the lab bench, pipetted several times and aliquots of cell suspension were withdrawn and counted using a Coulter particle counter that has been standardized for counting each cell line using a hemacytometer.
(§3) MTT Assay: Trypsinized cell suspensions were diluted to seed 80 μl suspensions containing 500 cells in each well of a 96 well Corning microtiter plate and incubated overnight at 37° C. in a humidified incubator in 5% CO2. 20 μl of appropriately diluted stock solution of each drug (i.e., polyamine analog) were added to the middle 8 columns of cell suspension in the microtiter plates. Each drug concentration was run in quadruplicate. Outer columns of the plates were used for buffer controls. Cells were incubated with the drug for 6 days at 37° C. in 5% CO2/H2O atmosphere. 25 μl of 5 mg/ml solution of 3-(4,5-dimethylthiazol-2-yl)-2,5-diphenyl tetrazolium bromide (MTT) were added to each well and incubated for 4 hours at 37° C. in 5% CO2/H2O incubator. Cells were lysed by incubating overnight with 100 μl lysis buffer (500 ml of the lysis buffer contains: 100 g lauryl sulfate (SDS), 250 ml of N,N-dimethylformamide, and 2 ml of glacial acetic acid, made up to volume with water; pH 4.8).
(§4) The color was monitored at room temperature at 570 nm in a E-max Precision Microplate Reader (Molecular Devices Corporation, Sunnyvale, Calif.) and data was analyzed using cell survival software supplied by Molecular Devices Corporation.
(§5) The effects of SL-11218 and SL-11231 on the growth of human prostate tumor cell lines PC-3, DU-145, DuPro and LnCap and on human breast cancer cell lines MCF-7 and MDA-MB-231 in culture were determined by an MTT assay. The growth inhibitory effects were expressed as ID50 value which is defined as the drug concentration required to inhibit 50% cell growth after 5 days of treatment. The results are shown in Table 2; the numbers are the average of the values determined in at least three separate experiments. Both compounds are effective in inhibiting human prostate tumor cell growth in culture.

[2] = tested on: DuPro human prostate cancer cell line; assay: MTT assay, DuPro cells; assay type: cell-based
Experimental: as §1, §2, §3, §4, §5

[3] = tested on: DuPro human prostate tumor cell line; assay: Colony forming efficiency (CFE) assay, DuPro; assay type: cell-based; settings: FIG. 6
[4] = tested on: MCF-7 human breast cancer cell line; assay: MTT assay, MCF-7 cells; assay type: cell-based; settings: for IC50: Table 2, 5 days of treatment, average of at least three experiments, read-out: ID50 MCF-7
Experimental: as §3, §4, §5

[5] = tested on: BxPC-3 human pancreatic tumor xenograft; assay: Human pancreatic tumor xenograft in nude mice; assay type: in vivo; settings: 10 days break
[6] = tested on: MDA-MB-231 human breast cancer cell line; assay: MTT assay, MDA-MB-231 cells; assay type: cell-based; settings: Table 2, 5 days of treatment, average of at least three experiments, read-out: ID50 MDA-MB-231
Experimental: as §3, with “Cells were lysed by incubating overnight with 100 μl lysis buffer (500 ml of the lysis buffer contains: 100 g lauryl sulfate (SDS), 250 ml of N,N-dimethylformamide, and 2 ml of glacial acetic acid, made up to volume with water; pH 4.8).” left out
as §4
(§6) The effects of SL-11218 and SL-11231 on the growth of human prostate tumor cell lines PC-3, DU-145, DuPro and LnCap and on human breast cancer cell lines MCF-7 and MDA-MB-231 in culture were determined by an MTT assay. […] The results are shown in Table 2; the numbers are the average of the values determined in at least three separate experiments. […]

[7] = Body weight of DU-145 tumor-bearing nude mice under treatment; assay type: in vivo
Experimental: (§7) Male athymic nude mice were given s.c. injections of 1×10^6 DU-145 cells on Day 0. Beginning on Day 7, mice were treated i.p q1w×4 for 3 cycles with either saline, 50 mg/kg SL-11218 or 75 mg/kg SL-11218 (pH 7.4) i.p. at 10 ml/kg dosing volume. (Cage issues in the control cage were due to a water bottle leaking and lack of food for 24 hours.) The treatment was carried out once weekly for four weeks (q1w×4) in 3 cycles with a 4 week gap between each cycle. (i.e., cycle 1, administration on days 7, 14, 21, 28; cycle 2, administration on days 49, 56, 63, 70; cycle 3, administration on days 98, 105, 112, 119). All p values were compared to vehicle treated mice.
(§8) The effect of SL-11231 at 12.5 mg/kg for 5 consecutive days against DU-145 human prostate tumor xenograft in nude mice is shown in FIG. 8a. […] (Note that the value reported in Table 1 for SL-11231 versus DU-145 cells is for a single experiment, while the value reported in Table 2 is an average of multiple experiments.)
(§9) In addition, SL-11218 at a dose of 75 mg/kg i.p. for q1w×4 stabilized large (˜2000 mm^3) DU-145 tumor xenograft for 2 cycles with a 4 week gap between each cycle (FIG. 11a). Male athymic nude mice were given s.c. injections of 1×10^6 DU145 cells on Day 0. Beginning on Day 10, mice were given acidified water vehicle orally at 10 ml/kg dosing volume 1× weekly for 8 weeks. On D66 mice began weekly treatment of saline versus SL-11218 i.p. After cycle 1 there was a 27% reduction in tumor volume compared to vehicle treated controls. After cycle 2 there was a significant reduction of 64% with 15% drop in body weight which recovered between cycles. (Cycle 1, administration on days 66, 73, 80, 87; cycle 2, administration on days 115, 122, 129, 136.) BW p values were compared to untreated controls. At d87, p=0.005 for SL-11218. (For saline vehicle, n=9; at d 87 n=8; at d 101, n=4; for SL-11218 n=9; d 80 n=7; d 101 n=5). FIG. 11b indicates the effect of SL-11218 on animal bodyweight (saline vehicle, n=9, at d87, n=8; at d101 n=4; for SL-11218, n=9; at d80, n=7, at d101 n=5; p=0.015 at d98 and 0.001 at d132).

[8] = tested on: large (~2000 mm^3) DU-145 tumor xenograft; assay: Large DU-145 tumor xenograft in nude mice; assay type: in vivo
Experimental: as §9

[9] = tested on: DU-145 human prostate tumor xenograft; assay: DU-145 human prostate tumor xenograft in nude mice; assay type: in vivo
Experimental: as §7, §8

[10] = tested on: DU145 human prostate cancer cell line; assay: MTT assay, DU145 cells; assay type: cell-based; settings: read-out: ID50 DU145
Experimental: as §1, §2, §3, §4, §5

[11] = multiple injection (ip) schedules; cited from earlier work
[12] = tested on: L1210 leukemia or Lewis lung carcinoma; settings: L1210 leukemia or Lewis lung carcinoma grafted in athymic nude mice; cited from earlier work
[13] = tested on: LnCap human prostate cancer cell line; assay: MTT assay, LnCap cells; assay type: cell-based; settings: read-out: ID50 LnCap
Experimental: as §1, §2
MTT Assay: Trypsinized cell suspensions were diluted to seed 80 μl suspensions containing 500 cells in each well of a 96 well Corning microtiter plate and incubated overnight at 37° C. in a humidified incubator in 5% CO2. […]
as §4, §6

[14] = tested on: Tsu-pr1-ADR human prostate cancer cell line; assay: MTT assay, Tsu-pr1-ADR cells; assay type: cell-based; settings: Table 1, read-out: ID50 Tsu-pr1-ADR
Experimental: as §1
as §2, with “Cells were harvested by treatment for 5 min with STV (saline A, 0.05% trypsin, 0.02% EDTA) at 37° C.” left out, “hemacytometer. […]” for “hemacytometer.”
as §4

[15] = tested on: Tsu-pr1 human prostate cancer cell line; assay: MTT assay, Tsu-pr1 cells; assay type: cell-based; settings: Table 1, read-out: ID50 Tsu-pr1
Experimental: as §1
as §2, with “Cells were harvested by treatment for 5 min with STV (saline A, 0.05% trypsin, 0.02% EDTA) at 37° C.” left out, “hemacytometer. […]” for “hemacytometer.”
as §4

[16] = Table 1, PC-3, read-out: ID50 PC-3
[17] = Table 1, human prostate cancer cell line DuPro, read-out: ID50 DuPro
[18] = Table 2, 5 days of treatment, average of at least three experiments, read-out: ID50 PC3
[19] = Table 2, 5 days of treatment, average of at least three experiments, read-out: ID50 DUPRO
[20] = Table 1, DU145, SL-11231 value from a single experiment
[21] = Table 2, 5 days of treatment, average of at least three experiments

## CCNCCCCNCC1CC1CNCCCCNCCCCNCC1CC1CNCCCCNCCCCNCC1CC1CNCCCCNCC (stereo not drawn) [SL-11232, 10,11-25,26-40,41-ter[(E)-1,2-cyclopropyl]-3,8,13,23,28,33,38,43,48-decaazapentacontane decahydrochloride]
[1]; [16]
  IC50: 300 nM
[2]; [17]
  IC50: 200 nM

## CCNCC1CC1CNCCCCNCC1CC1CNCC.Cl.Cl.Cl.Cl (mixture of isomers) [SL-11218]
[3]
  cytotoxicity by CFE assay: marked cytotoxicity
[1]; [16]
  IC50: > 31200 nM
[1]; [18]
  IC50: > 31200 nM
[4]
  IC50: 4250 nM
[4]; in words
  activity against MCF-7 breast cancer cells: some activity
[2]; [17]
  IC50: 260 nM
[2]; [19]
  IC50: 260 nM
[5]; 50 mg/kg i.p. q1d×5, 2 cycles
  effect on human pancreatic tumor growth: effectively inhibit human pancreatic tumor growth
[6]
  IC50: > 31200 nM
[7]; 75 mg/kg i.p. q1w×4, 3 cycles, 120 days, DU-145 xenograft
  bodyweight loss: without appreciable bodyweight loss
[7]; 75 mg/kg i.p. q1w×4, after cycle 2, large DU-145 xenograft, recovered between cycles
  drop in body weight: 15%
[8]; 75 mg/kg i.p. q1w×4, 2 cycles
  effect on large tumor xenograft: stabilized
[8]; 75 mg/kg i.p. q1w×4, after cycle 1
  reduction in tumor volume compared to vehicle treated controls: 27%
[8]; 75 mg/kg i.p. q1w×4, after cycle 2
  reduction in tumor volume compared to vehicle treated controls: 64%
[9]; 50 mg/kg i.p. q1w×4, 3 cycles
  effect on tumor growth: temporarily arrested tumor growth
[9]; 75 mg/kg i.p. q1w×4, 3 cycles
  effect on tumor growth: arrested tumor growth throughout the treatment period of 120 days
[10]; [20]
  IC50: 63 nM
[10]; [21]
  IC50: 60 nM

## CCNCCCCNCC1CC1CNCCCCN (stereo not drawn) [SL-11242]
[1]; Homo sapiens, Table 1, PC-3, read-out: ID50 PC-3
  IC50: > 31200 nM

## CCNCCCCNCCCCNCCCCNCC [BE-4-4-4, ^1N,^14N-bisethylhomospermine]
[11]
  maximum tolerated dose (MTD): ca. 6 mg/kg
[12]
  increase in lifespan as compared to control: ca. 6 fold

## NCCCCNCC1CC1CNCCCCN (racemic) [SL-11245]
[1]; [16]
  IC50: > 31200 nM
[2]; [17]
  IC50: > 31200 nM
[10]; [20]
  IC50: 610 nM

## CCNCCCCNCC1CC1CNCCCCNCC1CC1CNCCCCNCC (mixture of isomers) [SL-11231]
[1]; [16]
  IC50: > 31200 nM
[1]; [18]
  IC50: > 31200 nM
[4]
  IC50: > 31200 nM
[2]; [17]
  IC50: 380 nM
[2]; [19]
  IC50: 380 nM
[5]; 12.5 mg/kg i.p. q1d×5, 2 cycles
  effect on human pancreatic tumor growth: effectively inhibit human pancreatic tumor growth
[6]
  IC50: > 31200 nM
[7]; 12.5 mg/kg for 5 consecutive days, DU-145 xenograft
  effect on animal bodyweight: without appreciable effects on animal bodyweight
[9]; 12.5 mg/kg for 5 consecutive days
  effect on tumor growth: efficiently inhibits tumor growth
[13]; Table 1, LnCap
  IC50: 150 nM
[13]; [21]
  IC50: 150 nM
[10]; [20]
  IC50: 80 nM
[10]; [21]
  IC50: 120 nM

## CCNCCCCNCCCCNCCCCNCCCCNCC1CC1CNCCCCNCCCCNCCCCNCCCCNCC (racemic) [SL-11241]
[1]; [16]
  IC50: 400 nM
[2]; [17]
  IC50: 340 nM
[10]; [20]
  IC50: 200 nM

## CCNCCCCNCC1CC1CNCCCCNCC (racemic) [SL-11093]
[1]; [16]
  IC50: 4170 nM
[14]
  IC50: > 31200 nM
[2]; [17]
  IC50: 200 nM
[15]
  IC50: 70 nM
[13]; Table 1, LnCap
  IC50: 210 nM
[10]; [20]
  IC50: 10 nM

## CC(C)(C)NCCCCNCC1CC1CNCCCCNC(C)(C)C (racemic) [SL-11247]
[1]; [16]
  IC50: > 31200 nM
[2]; [17]
  IC50: > 31200 nM
[10]; [20]
  IC50: 11200 nM

## CCNCC1CC1CNCC1CC1CNCC1CC1CNCC (mixture of isomers) [SL-11215]
[1]; [16]
  IC50: > 31200 nM
[2]; [17]
  IC50: 630 nM
[10]; [20]
  IC50: 60 nM
